Reference: patent publication US9662323B2, “Compounds having muscarinic receptor antagonist and beta2 adrenergic receptor agonist activity” (CHIESI FARMACEUTICI S.p.A., priority 2015, dated 2017)

Legend:
Human β2 adrenoceptor = target: T1, Human β2 adrenoceptor (Homo sapiens, UniProt P07550); test: β2 Adrenoceptor Radioligand Binding Assay; conditions: human β2 adrenoceptor membranes, 125-I Cyanopindolol; read-out: B2 binding affinity (Ki class)
T1 construct: purchased Perkin Elmer
Procedure: β2 Adrenoceptor Radioligand Binding Assay
The assay was carried out in 96-well polypropylene plates in a volume of 200 ul. The assay buffer used was 25 mM HEPES, 0.5% BSA (w/v), 1 mM EDTA, 0.02% ascorbic acid (v/v), (pH 7.4). The final assay concentration of DMSO was 0.5% (v/v). The plates were sealed and incubated for 1 h at room temperature on an orbital shaker (slow speed). Membranes were harvested onto 96-well unifilter GF/C filter plates pre-treated with 0.5% polyethyleneimine (v/v), using a filter manifold, washed six times with 200 ul of wash buffer containing 10 mM HEPES and 500 mM NaCl. The plates were dried before addition of 50 μl of microscint-0, sealed then read in a Trilux Microbeta scintillation counter. IC50 values are determined from competition curves using a non-linear curve fitting program. Ki values were calculated from IC50 values by the Cheng and Prusoff equation.

Human M3 receptor = target: T2, Human M3 receptor (Homo sapiens, UniProt P20309); test: M3 Receptor Radioligand Binding Assay; conditions: human M3 receptor membranes, [3H]-N-methyl scopolamine; read-out: M3 binding affinity (Ki class)
T2 construct: purchased Perkin Elmer
T2 sequence (P20309 whole entry): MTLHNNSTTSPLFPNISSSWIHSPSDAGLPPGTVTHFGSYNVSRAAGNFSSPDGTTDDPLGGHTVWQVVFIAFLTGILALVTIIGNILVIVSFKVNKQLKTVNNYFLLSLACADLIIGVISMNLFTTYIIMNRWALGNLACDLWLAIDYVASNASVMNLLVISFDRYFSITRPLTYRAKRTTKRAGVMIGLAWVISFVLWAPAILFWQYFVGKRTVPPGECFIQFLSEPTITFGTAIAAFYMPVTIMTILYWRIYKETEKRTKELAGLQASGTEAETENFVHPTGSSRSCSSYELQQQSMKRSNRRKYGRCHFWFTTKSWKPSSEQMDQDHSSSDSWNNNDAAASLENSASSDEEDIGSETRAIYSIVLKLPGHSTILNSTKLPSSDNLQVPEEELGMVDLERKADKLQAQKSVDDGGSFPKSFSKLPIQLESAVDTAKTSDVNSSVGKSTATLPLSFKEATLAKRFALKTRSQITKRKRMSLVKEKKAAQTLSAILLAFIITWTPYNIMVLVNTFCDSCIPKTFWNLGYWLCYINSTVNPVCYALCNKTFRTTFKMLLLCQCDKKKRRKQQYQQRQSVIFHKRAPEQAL
Procedure: Biological Characterization M3 Receptor Radioligand Binding Assay
The assay was carried out in 96-well polypropylene plates in a volume of 250 ul. […] The final assay concentration of DMSO was 0.5% (v/v). The plates were sealed and incubated for 2 h at room temperature on an orbital shaker (slow speed). Membranes were harvested onto 96-well unifilter GF/C filter plates pre-treated with 0.5% polyethyleneimine (v/v), using a filter manifold, washed four times with 200 ul of assay buffer. The plates were dried before addition of 50 μl of microscint-0, sealed then read in a Trilux Microbeta scintillation counter.

T1 sequence (P07550 whole entry): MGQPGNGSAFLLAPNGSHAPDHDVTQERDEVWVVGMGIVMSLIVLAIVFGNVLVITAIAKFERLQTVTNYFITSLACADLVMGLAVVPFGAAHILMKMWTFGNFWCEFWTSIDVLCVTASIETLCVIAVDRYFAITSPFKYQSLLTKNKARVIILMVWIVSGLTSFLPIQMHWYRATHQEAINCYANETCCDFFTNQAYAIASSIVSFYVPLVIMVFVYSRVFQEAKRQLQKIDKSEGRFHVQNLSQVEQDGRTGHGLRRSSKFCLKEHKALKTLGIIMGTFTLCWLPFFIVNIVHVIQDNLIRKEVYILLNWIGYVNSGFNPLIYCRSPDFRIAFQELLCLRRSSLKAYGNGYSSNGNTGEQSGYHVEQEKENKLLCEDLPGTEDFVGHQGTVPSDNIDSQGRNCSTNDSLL

Row | Structure (SMILES) | Ki (Human β2 adrenoceptor) | Ki (Human M3 receptor)
1 | O=C(NCc1ccc(C(=O)N2CC(C(=O)O[C@H]3CN4CCC3CC4)(c3ccccc3)C2)cc1)c1ccc(CNC[C@H](O)c2ccc(O)c3[nH]c(=O)ccc23)cc1 [Compound 17A, (R)-Quinuclidin-3-yl 1-(4-((4-((((R)-2-hydroxy-2-(8-hydroxy-2-oxo-1,2-dihydroquinolin-5-yl)ethyl)amino)methyl)benzamido)methyl)benzoyl)-3-phenylazetidine-3-carboxylate] | < 1 nM | < 1 nM
2 | O=C(Cc1ccc(CC(=O)N2CC(C(=O)O[C@H]3CN4CCC3CC4)(c3ccccc3)C2)cc1)N(CCCNC[C@H](O)c1ccc(O)c2[nH]c(=O)ccc12)Cc1ccccc1 [Compound 14A, (R)-Quinuclidin-3-yl 1-(2-(4-(2-(benzyl(3-(((R)-2-hydroxy-2-(8-hydroxy-2-oxo-1,2-dihydroquinolin-5-yl)ethyl)amino)propyl)amino)-2-oxoethyl)phenyl)acetyl)-3-phenylazetidine-3-carboxylate] | < 1 nM | < 1 nM
3 | O=C(c1ccc(CCNC[C@H](O)c2ccc(O)c3[nH]c(=O)ccc23)cc1)N1CCC(C(=O)O[C@H]2CN3CCC2CC3)(c2ccccc2)CC1 [Compound 20, (R)-Quinuclidin-3-yl 1-(4-(2-(((R)-2-hydroxy-2-(8-hydroxy-2-oxo-1,2-dihydroquinolin-5-yl)ethyl)amino)ethyl)benzoyl)-4-phenylpiperidine-4-carboxylate] | < 1 nM | > 10 nM
4 | O=C(NCCCCNC[C@H](O)c1ccc(O)c2[nH]c(=O)ccc12)c1ccc(C(=O)N2CCC(C(=O)O[C@H]3CN4CCC3CC4)(c3ccccc3)CC2)cc1 [Compound 19, (R)-Quinuclidin-3-yl 1-(4-((4-(((R)-2-hydroxy-2-(8-hydroxy-2-oxo-1,2-dihydroquinolin-5-yl)ethyl)amino)butyl)carbamoyl)benzoyl)-4-phenylpiperidine-4-carboxylate] | < 1 nM | 1 to 10 nM
5 | O=C(NCCCNC[C@H](O)c1ccc(O)c2[nH]c(=O)ccc12)c1ccc(COc2ccc(C(=O)N3CC(C(=O)O[C@H]4CN5CCC4CC5)(c4ccccc4)C3)cc2)cc1 [Compound 19A, (R)-Quinuclidin-3-yl 1-(4-((4-((3-(((R)-2-hydroxy-2-(8-hydroxy-2-oxo-1,2-dihydroquinolin-5-yl)ethyl)amino)propyl)carbamoyl)benzyl)oxy)benzoyl)-3-phenylazetidine-3-carboxylate] | < 1 nM | < 1 nM
6 | O=C(Cc1ccc(CC(=O)N(CCCNC[C@H](O)c2ccc(O)c3[nH]c(=O)ccc23)Cc2cccc(F)c2)cc1)N1CCC(C(=O)O[C@H]2CN3CCC2CC3)(c2ccccc2)CC1 [Compound 42, (R)-Quinuclidin-3-yl 1-(2-(4-(2-((3-fluorobenzyl)(3-(((R)-2-hydroxy-2-(8-hydroxy-2-oxo-1,2-dihydroquinolin-5-yl)ethyl)amino)propyl)amino)-2-oxoethyl)phenyl)acetyl)-4-phenylpiperidine-4-carboxylate] | < 1 nM | < 1 nM
7 | CN(CCCNC[C@H](O)c1ccc(O)c2[nH]c(=O)ccc12)C(=O)c1ccc(C(=O)N2CCC(C(=O)O[C@H]3CN4CCC3CC4)(c3ccccc3)CC2)s1 [Compound 27, (R)-Quinuclidin-3-yl 1-(5-((3-(((R)-2-hydroxy-2-(8-hydroxy-2-oxo-1,2-dihydroquinolin-5-yl)ethyl)amino)propyl)(methyl)carbamoyl)thiophene-2-carbonyl)-4-phenylpiperidine-4-carboxylate] | < 1 nM | 1 to 10 nM
8 | COc1cc(C(=O)N2CCC(C(=O)O[C@H]3CN4CCC3CC4)(c3ccccc3)CC2)ccc1OCCCCCNC[C@H](O)c1ccc(O)c2[nH]c(=O)ccc12 [Compound 3, (R)-Quinuclidin-3-yl 1-(4-((5-(((R)-2-hydroxy-2-(8-hydroxy-2-oxo-1,2-dihydroquinolin-5-yl)ethyl)amino)pentyl)oxy)-3-methoxybenzoyl)-4-phenylpiperidine-4-carboxylate] | < 1 nM | 1 to 10 nM
9 | CCN(CCCNC[C@H](O)c1ccc(O)c2[nH]c(=O)ccc12)C(=O)c1ccc(CCC(=O)N2CCC(C(=O)O[C@H]3CN4CCC3CC4)(c3ccccc3)CC2)cc1 [Compound 52, (R)-Quinuclidin-3-yl 1-(3-(4-(ethyl(3-(((R)-2-hydroxy-2-(8-hydroxy-2-oxo-1,2-dihydroquinolin-5-yl)ethyl)amino)propyl)carbamoyl)phenyl)propanoyl)-4-phenylpiperidine-4-carboxylate] | < 1 nM | 1 to 10 nM
10 | O=C(c1ccc(OCCCCCNC[C@H](O)c2ccc(O)c3[nH]c(=O)ccc23)c(-c2ccsc2)c1)N1CCC(C(=O)O[C@H]2CN3CCC2CC3)(c2ccccc2)CC1 [Compound 6, (R)-Quinuclidin-3-yl 1-(4-((5-(((R)-2-hydroxy-2-(8-hydroxy-2-oxo-1,2-dihydroquinolin-5-yl)ethyl)amino)pentyl)oxy)-3-(thiophen-3-yl)benzoyl)-4-phenylpiperidine-4-carboxylate] | < 1 nM | > 10 nM
11 | CCN(CCCNC[C@H](O)c1ccc(O)c2[nH]c(=O)ccc12)C(=O)c1ccc(C(=O)N2CCC(C(=O)O[C@H]3CN4CCC3CC4)(c3ccccc3)CC2)s1 [Compound 29, (R)-Quinuclidin-3-yl 1-(5-(ethyl(3-(((R)-2-hydroxy-2-(8-hydroxy-2-oxo-1,2-dihydroquinolin-5-yl)ethyl)amino)propyl)carbamoyl)thiophene-2-carbonyl)-4-phenylpiperidine-4-carboxylate] | < 1 nM | 1 to 10 nM
12 | O=C(Cc1cccc(OCCCCCNC[C@H](O)c2ccc(O)c3[nH]c(=O)ccc23)c1)N1CCC(C(=O)O[C@H]2CN3CCC2CC3)(c2ccccc2)CC1 [Compound 11, (R)-Quinuclidin-3-yl 1-(2-(3-((5-(((R)-2-hydroxy-2-(8-hydroxy-2-oxo-1,2-dihydroquinolin-5-yl)ethyl)amino)pentyl)oxy)phenyl)acetyl)-4-phenylpiperidine-4-carboxylate] | < 1 nM | 1 to 10 nM
13 | O=C(c1ccc(CN(Cc2ccc(CNC[C@H](O)c3ccc(O)c4[nH]c(=O)ccc34)cc2)C(=O)C2CC2)cc1)N1CCC(C(=O)O[C@H]2CN3CCC2CC3)(c2ccccc2)CC1 [Compound 60, (R)-Quinuclidin-3-yl 1-(4-((N-(4-((((R)-2-hydroxy-2-(8-hydroxy-2-oxo-1,2-dihydroquinolin-5-yl)ethyl)amino)methyl)benzyl)cyclopropanecarboxamido)-methyl)benzoyl)-4-phenylpiperidine-4-carboxylate] | 1 to 10 nM | < 1 nM
14 | O=C(CCc1ccc(OCCCCCNC[C@H](O)c2ccc(O)c3[nH]c(=O)ccc23)c(-c2ccccc2)c1)N1CCC(C(=O)O[C@H]2CN3CCC2CC3)(c2ccccc2)CC1 [Compound 16, (R)-Quinuclidin-3-yl 1-(3-(6-((5-(((R)-2-hydroxy-2-(8-hydroxy-2-oxo-1,2-dihydroquinolin-5-yl)ethyl)amino)pentyl)oxy)-[1,1′-biphenyl]-3-yl)propanoyl)-4-phenylpiperidine-4-carboxylate] | < 1 nM | 1 to 10 nM
15 | O=C(Cc1ccc(OCCCCNC[C@H](O)c2ccc(O)c3[nH]c(=O)ccc23)cc1)N1CCC(C(=O)O[C@H]2CN3CCC2CC3)(c2ccccc2)CC1 [Compound 30, (R)-Quinuclidin-3-yl 1-(2-(4-(4-(((R)-2-hydroxy-2-(8-hydroxy-2-oxo-1,2-dihydroquinolin-5-yl)ethyl)amino)butoxy)phenyl)acetyl)-4-phenylpiperidine-4-carboxylate] | < 1 nM | 1 to 10 nM
16 | O=C(Cc1ccc(CC(=O)N2CCC(C(=O)O[C@H]3CN4CCC3CC4)(c3ccccc3)CC2)cc1)NCCCNC[C@H](O)c1ccc(O)c2[nH]c(=O)ccc12 [Compound 46, (R)-Quinuclidin-3-yl 1-(2-(4-(2-((3-(((R)-2-hydroxy-2-(8-hydroxy-2-oxo-1,2-dihydroquinolin-5-yl)ethyl)amino)propyl)amino)-2-oxoethyl)phenyl)acetyl)-4-phenylpiperidine-4-carboxylate] | > 10 nM | > 10 nM
17 | O=C(Cc1ccc(CC(=O)N(CCCNC[C@H](O)c2ccc(O)c3[nH]c(=O)ccc23)Cc2cccc(C(F)(F)F)c2)cc1)N1CCC(C(=O)O[C@H]2CN3CCC2CC3)(c2ccccc2)CC1 [Compound 37, (R)-Quinuclidin-3-yl 1-(2-(4-(2-((3-(((R)-2-hydroxy-2-(8-hydroxy-2-oxo-1,2-dihydroquinolin-5-yl)ethyl)amino)propyl)(3-(trifluoromethyl)benzyl)amino)-2-oxoethyl)phenyl)acetyl)-4-phenylpiperidine-4-carboxylate] | 1 to 10 nM | < 1 nM
18 | O=C(c1ccc(OCCCCNC[C@H](O)c2ccc(O)c3[nH]c(=O)ccc23)cc1)N1CC(C(=O)O[C@H]2CN3CCC2CC3)(c2ccccc2)C1 [Compound 18A, (R)-Quinuclidin-3-yl 1-(4-(4-(((R)-2-hydroxy-2-(8-hydroxy-2-oxo-1,2-dihydroquinolin-5-yl)ethyl)amino)butoxy)benzoyl)-3-phenylazetidine-3-carboxylate] | < 1 nM | 1 to 10 nM
